Laboratory results from patent US20100261710A1, “HDAC Inhibitors” (ARQULE, INC., priority 2007, published 2010).

What was measured:
HDAC1 = molecular target: T1, HDAC1 (Homo sapiens, UniProt Q13547); test: HDAC-1 immunocapture fluorescent biochemical assay (HeLa lysate); details: HDAC1 immunocaptured from HeLa extract
T1 construct: cell extract containing HDAC (HeLa in these experiments); endogenous in cells; host or cells: HeLa cell extract
Method: The HDAC-1 assay represents a novel immunocapture assay procedure. […] The HDAC1 is captured on a protein A coated plate using HDAC1 specific antibody, and is then allowed to react with the substrate.
This assay in performed in four general steps. In the first step (FIG. 1A), cell extract containing HDAC (HeLa in these experiments) is incubated with (cell signaling) rabbit polyclonal HDAC1 antibody (rabbit IgG antibody is used for background control) to allow binding of the enzyme to the antibody. In the second step, the complexed mixture is added to the protein A covered plate which captures the antibody. In the third step, after washing away unbound proteins, substrate and inhibitor are added and deacetylation is allowed to occur. […] The plate is then read on either Victor or Perkin Elmer Envision system using Umbilliferone filter set.
• A. HeLa extract complexed with HDAC1 antibody working solution (in DPBS):
Compound working solution (in HDAC buffer):
Compounds diluted in assay buffer at 2× Screening concentration. • D. Activator solution:
Trypsin (10 mg/mL) diluted 1:1600 in assay buffer containing 4 μM TSA.
Complexing of extract with antibody was carried out at room temperature for 60 min with rocking. Binding of complexes onto protein A plate was carried out at room temperature for 60 min in 50 μL. Reaction was carried out in […], in the protein A plate for 60 minutes at 37° C. 40 μL of the reaction was moved into white ½ area plate for activation and reading.
• 1. Set PIERCE Protein A plate to block with 150 μof 5% BSA in TB ST for 60 min at room temperature. • 2. […] Dilute complexes further ([…]) by addition of 3.5 mL of PBS (final total volume of 5 mL). • 4. Wash blocked protein A plate prior to complex addition with TBST. • 5. Add 50 μl of diluted complexes to Protein A plate and incubate for 60 min at room temperature. • 6. Wash plate with TB ST. • 7. Add 25 μl of diluted compounds (in HDAC buffer) to each well and incubate for 10 min at room temperature. • 8. […] Move 40 μl of reaction to a white plate and add 20 μl of activator/developer solution, mix thoroughly. • 10. Read plate.

HDAC2 = molecular target: T2, HDAC2 (Homo sapiens, UniProt Q92769); test: HDAC isoform assay, HDAC2; assay type: biochemical; details: substrate KI-177; read-out: HDAC2, IC50, ELISA (KI-177)
T2 construct: purchased BioMol
T2 sequence (Q92769 whole entry, canonical isoform): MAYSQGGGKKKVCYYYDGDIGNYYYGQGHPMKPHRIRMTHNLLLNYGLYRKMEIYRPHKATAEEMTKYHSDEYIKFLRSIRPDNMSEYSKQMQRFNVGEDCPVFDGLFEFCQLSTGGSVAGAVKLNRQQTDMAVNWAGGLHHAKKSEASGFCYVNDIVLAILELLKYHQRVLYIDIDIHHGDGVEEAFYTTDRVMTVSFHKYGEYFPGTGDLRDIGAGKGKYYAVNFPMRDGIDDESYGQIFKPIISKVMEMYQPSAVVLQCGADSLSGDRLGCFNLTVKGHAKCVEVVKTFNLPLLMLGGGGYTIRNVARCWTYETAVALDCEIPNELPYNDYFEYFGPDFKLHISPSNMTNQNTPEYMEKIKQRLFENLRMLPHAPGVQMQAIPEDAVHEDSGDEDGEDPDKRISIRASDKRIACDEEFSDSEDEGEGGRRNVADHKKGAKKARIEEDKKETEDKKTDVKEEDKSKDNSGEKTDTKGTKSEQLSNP

HDAC9 = molecular target: T3, HDAC9 (Homo sapiens, UniProt Q9UKV0); test: HDAC isoform assay, HDAC9; assay type: biochemical
T3 construct: purchased BioMol
T3 sequence (Q9UKV0 whole entry, canonical isoform): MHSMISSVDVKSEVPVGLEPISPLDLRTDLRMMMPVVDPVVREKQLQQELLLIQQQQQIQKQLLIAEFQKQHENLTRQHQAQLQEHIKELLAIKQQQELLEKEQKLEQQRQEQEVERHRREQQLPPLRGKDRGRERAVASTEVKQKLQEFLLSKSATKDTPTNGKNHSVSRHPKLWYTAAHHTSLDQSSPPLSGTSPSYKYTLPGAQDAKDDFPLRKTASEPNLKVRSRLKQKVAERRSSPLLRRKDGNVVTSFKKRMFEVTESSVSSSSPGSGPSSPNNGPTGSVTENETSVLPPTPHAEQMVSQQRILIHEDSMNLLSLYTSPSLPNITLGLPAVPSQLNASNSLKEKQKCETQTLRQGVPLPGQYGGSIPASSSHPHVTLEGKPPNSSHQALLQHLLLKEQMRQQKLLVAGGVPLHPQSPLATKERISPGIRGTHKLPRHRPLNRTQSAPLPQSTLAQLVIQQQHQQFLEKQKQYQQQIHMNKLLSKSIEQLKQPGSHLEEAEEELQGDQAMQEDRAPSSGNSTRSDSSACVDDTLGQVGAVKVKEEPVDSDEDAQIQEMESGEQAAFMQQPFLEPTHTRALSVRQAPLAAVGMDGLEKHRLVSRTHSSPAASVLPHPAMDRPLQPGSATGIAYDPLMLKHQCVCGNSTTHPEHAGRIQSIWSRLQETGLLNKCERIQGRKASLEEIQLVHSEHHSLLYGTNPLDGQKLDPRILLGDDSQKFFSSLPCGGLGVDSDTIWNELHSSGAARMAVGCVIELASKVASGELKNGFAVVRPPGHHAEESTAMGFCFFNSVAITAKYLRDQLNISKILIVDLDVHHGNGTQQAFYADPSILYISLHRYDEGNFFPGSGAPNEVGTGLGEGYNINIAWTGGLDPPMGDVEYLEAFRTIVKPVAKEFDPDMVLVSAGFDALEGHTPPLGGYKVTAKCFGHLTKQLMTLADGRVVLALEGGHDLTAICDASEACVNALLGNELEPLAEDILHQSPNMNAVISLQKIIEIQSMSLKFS

HDAC4 = molecular target: T4, HDAC4 (Homo sapiens, UniProt P56524); test: HDAC isoform assay, HDAC4; assay type: biochemical; details: substrate KI-177; read-out: HDAC4, IC50, ELISA (KI-177)
T4 construct: purchased BioMol
T4 sequence (P56524 whole entry, canonical isoform): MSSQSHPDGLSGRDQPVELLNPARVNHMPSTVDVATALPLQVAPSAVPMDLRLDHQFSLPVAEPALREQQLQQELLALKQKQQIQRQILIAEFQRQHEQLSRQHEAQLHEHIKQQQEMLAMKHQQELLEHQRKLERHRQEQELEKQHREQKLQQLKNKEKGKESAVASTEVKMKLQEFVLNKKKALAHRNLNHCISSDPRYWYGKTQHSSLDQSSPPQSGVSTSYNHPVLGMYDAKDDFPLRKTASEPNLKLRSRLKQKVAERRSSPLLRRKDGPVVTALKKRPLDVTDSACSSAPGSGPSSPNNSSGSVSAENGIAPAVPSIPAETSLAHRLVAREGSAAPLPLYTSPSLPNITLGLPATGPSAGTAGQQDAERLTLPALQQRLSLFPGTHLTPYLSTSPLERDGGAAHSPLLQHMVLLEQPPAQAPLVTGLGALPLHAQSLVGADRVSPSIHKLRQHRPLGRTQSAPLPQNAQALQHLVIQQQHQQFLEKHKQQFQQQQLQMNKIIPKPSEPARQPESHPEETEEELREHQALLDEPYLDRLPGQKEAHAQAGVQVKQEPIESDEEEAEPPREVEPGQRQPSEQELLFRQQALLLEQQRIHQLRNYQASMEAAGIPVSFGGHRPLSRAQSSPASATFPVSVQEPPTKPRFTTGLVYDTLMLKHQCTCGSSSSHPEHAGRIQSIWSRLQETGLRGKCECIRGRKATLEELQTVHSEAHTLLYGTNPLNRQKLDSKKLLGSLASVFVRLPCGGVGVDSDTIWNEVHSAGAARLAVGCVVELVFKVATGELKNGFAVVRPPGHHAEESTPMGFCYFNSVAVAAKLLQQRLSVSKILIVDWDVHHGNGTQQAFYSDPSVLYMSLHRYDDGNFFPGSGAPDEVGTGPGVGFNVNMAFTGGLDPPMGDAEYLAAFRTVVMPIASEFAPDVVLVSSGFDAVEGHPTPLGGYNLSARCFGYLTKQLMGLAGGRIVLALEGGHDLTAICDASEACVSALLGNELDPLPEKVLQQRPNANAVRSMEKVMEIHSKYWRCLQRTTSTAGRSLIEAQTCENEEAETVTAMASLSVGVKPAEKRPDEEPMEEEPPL

T1 sequence (Q13547 whole entry): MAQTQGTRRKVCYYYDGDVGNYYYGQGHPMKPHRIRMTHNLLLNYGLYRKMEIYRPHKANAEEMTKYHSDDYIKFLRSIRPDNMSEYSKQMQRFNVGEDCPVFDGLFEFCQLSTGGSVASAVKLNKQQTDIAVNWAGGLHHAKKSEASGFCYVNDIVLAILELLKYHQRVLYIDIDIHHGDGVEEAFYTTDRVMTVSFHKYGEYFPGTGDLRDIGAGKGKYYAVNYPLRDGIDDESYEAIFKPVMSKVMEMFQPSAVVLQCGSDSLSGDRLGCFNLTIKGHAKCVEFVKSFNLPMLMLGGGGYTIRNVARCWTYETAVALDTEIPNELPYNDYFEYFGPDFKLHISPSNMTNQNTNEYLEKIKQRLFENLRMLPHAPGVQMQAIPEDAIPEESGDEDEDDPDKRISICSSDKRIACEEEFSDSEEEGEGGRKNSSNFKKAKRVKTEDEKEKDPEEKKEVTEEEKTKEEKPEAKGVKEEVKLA

Row | Structure (SMILES) | IC50 (HDAC1) [nM] | IC50 (HDAC2) [nM] | IC50 (HDAC9) [nM] | IC50 (HDAC4) [nM]
1 | O=C(CCCCCNC(=O)c1cn2c3c(cccc13)CCC2)NO [compound 2, N-[6-(hydroxyamino)-6-oxohexyl]-5,6-dihydro-4H-pyrrolo[3,2,1-ij]quinoline-1-carboxamide] | 13.2 | 1940 | 106 | 
2 | O=C(CCCCCCNC(=O)c1cn2c3c(cccc13)CCC2)NO [compound 3, N-[7-(hydroxyamino)-7-oxoheptyl]-5,6-dihydro-4H-pyrrolo[3,2,1-ij]quinoline-1-carboxamide] | 41 | 2460 | 413 | 40.5
3 | O=C(CCCCCNC(=O)C(=O)c1cn2c3c(cccc13)CCC2)NO [compound 8, 6-{[5,6-dihydro-4H-pyrrolo[3,2,1-ij]quinolin-1-yl(oxo)acetyl]amino}-N-hydroxyhexanamide] | 45 | 1800 |  | 
4 | O=C(CCCNC(=O)C(=O)c1cn2c3c(cccc13)CCC2)NO [compound 9, 4-{[5,6-dihydro-4H-pyrrolo[3,2,1-ij]quinolin-1-yl(oxo)acetyl]amino}-N-hydroxybutanamide] | 583 | 3000 |  | 
5 | O=C(CCCCCCNC(=O)Nc1cn2c3c(cccc13)CCC2)NO [compound 11, 7-[(5,6-dihydro-4H-pyrrolo[3,2,1-ij]quinolin-1-ylcarbamoyl)amino]-N-hydroxyheptanamide] | 22 | 1340 | 88.7 | 40.4
6 | O=C(CCCCCCNC(=O)C(=O)c1cn2c3c(cccc13)CCC2)NO [compound 12, 7-{[5,6-dihydro-4H-pyrrolo[3,2,1-ij]quinolin-1-yl(oxo)acetyl]amino}-N-hydroxyheptanamide] | 90.4 | 2320 | 1060 | 298
7 | O=C(CCCCCNC(=O)Nc1cn2c3c(cccc13)CCC2)NO [compound 13, 6-[(5,6-dihydro-4H-pyrrolo[3,2,1-ij]quinolin-1-ylcarbamoyl)amino]-N-hydroxyhexanamide] | 18.9 | 1780 | 97.2 | 
